Measured values taken from US10711278B2, “Genetically altered alfalfa producing clovamide and/or related hydroxycinnamoyl amides” (The United States of America, as represented by the …, priority 2015, dated 2020).
Changes are numbered by the printed parent chain.

B1: hydroxycinnamoyl-CoA:L-DOPA/tyrosine hydroxycinnamoyl transferase 1 (protein)
chain: MVTIIASHTVIPEEPTPQGPFWLSDMDQVVRIRDVPTLYIYKTPKKNQENKNIVETFKNSLSKILVHYYPIAGRLCYIEGGRLELNLNAKGAILVEAETEKTMNDYGDFSHFDTIKELVPMIDYNQPIEEIPNFVVQLTNFKNNEGFAIGVAFLHPLSDGLGAIKFINSWAKIARGETLEANELPFLDRKLLKFSHTPLEPRFEHLELKPLPLILGRKDASEEKEKKTSATLLKLSSEQVDKLKKKANEEDVLGIQKKEYSRPYSKFEVISAHIWRCASKARELEDNQESVIRFIADVKNRMIPPLPKNYFGNALTQTATKGYIGEITSKPLGYVAQKIREATELINDEYIRSQIDVVRSFEHLDDARKMFIGEKARYFGNPNFNLTSWLSMPVYEADFGWGKPNYFGLADVSPHDRAVILLSPDDDGSVLVSFHFQIAHMELFNKYFYEEI
modifications: Trifolium pratense
B2: hydroxycinnamoyl-CoA:L-DOPA/tyrosine hydroxycinnamoyl transferase 2 (protein)
chain: B1 chain with N140K, I255V, E285K, I346V, F436L
modifications: Trifolium pratense

Key:
[1] = cited from earlier work
[2] = In-vitro hydroxycinnamoyl-CoA transferase activity of soluble E. coli extracts expressing HDT1 or HDT2, HPLC of products; format: biochemical, Trifolium pratense; details: expressed in E. coli; p-coumaroyl-, caffeoyl-, and feruloyl-CoA
Excerpt: Plasmids containing full-length red clover HDT coding regions (both HDT1 (SEQ ID NO: 1) and HDT2 (SEQ ID NO: 3)) were used as templates in PCR reactions with primers designed to introduce an […] restriction site at the start codons (ms886—SEQ ID NO: 13) and an XhoI site immediately following the stop codon (ms887—SEQ ID NO: 14) of each open reading frame. The resulting PCR products were digested with NcoI and XhoI and inserted into pET28a (Novagen, Madison, Wis.) digested with NcoI and XhoI. The insert is operably linked to the IPTG-inducible promoter contained in pET28. Each plasmid was sequenced to confirm correct sequence was generated.
Each pET28 derivative containing HDT coding regions (pET28-HDT1 and pET28-HDT2) or pET28 (as a negative control) were transformed, individually, into BL21(DE3)RIL Codon Plus E. coli (Agilent Technologies, Santa Clara, Calif.). […] The soluble fraction was isolated, divided into single use aliquots, flash frozen in liquid nitrogen and stored at −80° C. until ready to use. […]
The supernatant is analyzed for reaction products by HPLC. […]

Molecule	HDT activity ([1]; HCT2 gene product produced in E. coli)	preference for p-coumaroyl-CoA and feruloyl-CoA donor substrates over caffeoyl-CoA ([1]; in-vitro)	transfer of trans-hydroxycinnamoyl moiety from CoA derivative to L-DOPA or L-tyrosine [2]
hydroxycinnamoyl-CoA:malate hydroxycinnamoyl transferase [HMT]	does not have HDT activity	five- to tenfold	
B1			capable of transferring a trans-hydroxycinnamoyl moiety
B2			capable of transferring a trans-hydroxycinnamoyl moiety
